Measured values taken from PMC10746543, “Design principles for cyclin K molecular glue degraders” (Nature Chemical Biology, 2023).
“And” between values parts separate entries of the source, which are not always exact repeats. Identical values can stand only once. Like-named read-outs stand apart in the source and are kept apart here.

What was measured:
[1] = target: T1, CDK12–cyclin K and DDB1 (Homo sapiens, UniProt Q16531+Q9NYV4, K965R); test: TR-FRET ternary complex formation assay (compound titration); type: binding; conditions: for TR-FRET signal at compound concentration: replicate titrations
T1 construct: His6–CDK12 (a.a. 713–1,052); full-length or beta-propeller B domain deletion (ΔBPB: a.a. 396–705 deleted) constructs of His6–DDB1ΔBPB, StrepII–Avi–DDB1, or His6–Spy–DDB1; made in house; host or cells: Trichoplusia ni High Five insect cells (baculovirus)
How it was run: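 Read-out used a 70 μs delay to cut background fluorescence; TR-FRET signal taken as the 520 nm/490 nm emission ratio.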

[2] = test system: HEK293T cells; test: Drug sensitivity assay (CellTiter-Glo viability) with or without MLN4924 pretreatment; type: cell-based, human; conditions: for EC50: Homo sapiens, HEK-293T; for Toxicity rescue: MLN4924-mediated cytotoxicity rescue, 10 µM used where n.d.; for % MLN4924 rescue: PCA input
How it was run: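 HEK293T–Cas9 cells at 0.15 × 10^6 ml^−1 were treated with DMSO or 100 nM MLN4924 before plating. Test drugs were added 2 h later and exposure lasted 3 days. Viability was read by CellTiter-Glo luminescence and expressed relative to DMSO controls.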

[3] = test system: cyclin K–eGFP degradation reporter; test: Cyclin K reporter stability analysis (dual-color cyclin K–eGFP reporter); type: cell-based, human
How it was run: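 Readout was the eGFP-to-mCherry geometric-mean ratio by flow cytometry, normalized to three DMSO controls, after 5 h drug exposure. Cells used were HEK293T–Cas9 expressing the dual-colour cyclin K–eGFP degradation reporter.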

[4] = compound concentration 79.2001 nM
[5] = compound concentration 158.4 nM
[6] = compound concentration 309.6 nM
[7] = compound concentration 626.401 nM
[8] = compound concentration 1252.8 nM
[9] = compound concentration 9936.01 nM
[10] = compound concentration 20016 nM
[11] = in vitro complex formation, 50 nM CDK12–cyclin K, 100 nM DDB1, text and figures, read-out: TR-FRET EC50
[12] = sheet MOESM7, read-out: log TR-FRET EC50 (converted)
[13] = source data sheet correlations, read-out: TR-FRET EC50
[14] = Supplementary Table 2, HEK293T viability, 72 h, compound alone, read-out: Cellular assays EC50
[15] = source data sheet correlations, read-out: DC50

T1 sequence (Q9NYV4 713-1052 K965R): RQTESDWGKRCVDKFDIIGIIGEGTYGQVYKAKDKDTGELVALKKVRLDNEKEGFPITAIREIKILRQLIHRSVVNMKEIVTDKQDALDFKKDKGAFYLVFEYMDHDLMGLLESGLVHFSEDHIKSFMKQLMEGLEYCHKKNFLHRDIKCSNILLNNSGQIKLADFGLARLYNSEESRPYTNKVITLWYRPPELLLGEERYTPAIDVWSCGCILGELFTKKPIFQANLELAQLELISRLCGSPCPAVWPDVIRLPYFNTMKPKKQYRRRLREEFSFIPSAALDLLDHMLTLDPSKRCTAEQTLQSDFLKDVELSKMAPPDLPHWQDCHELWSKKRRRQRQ
T1 sequence (O75909 1-267 partner): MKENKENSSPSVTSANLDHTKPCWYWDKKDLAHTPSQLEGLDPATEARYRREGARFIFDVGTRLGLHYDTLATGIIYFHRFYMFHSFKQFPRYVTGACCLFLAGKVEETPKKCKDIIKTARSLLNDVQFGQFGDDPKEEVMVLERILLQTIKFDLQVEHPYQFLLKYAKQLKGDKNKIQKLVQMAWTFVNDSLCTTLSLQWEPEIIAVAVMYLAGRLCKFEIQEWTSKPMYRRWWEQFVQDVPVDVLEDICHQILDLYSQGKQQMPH
T1 sequence (Q16531 whole entry): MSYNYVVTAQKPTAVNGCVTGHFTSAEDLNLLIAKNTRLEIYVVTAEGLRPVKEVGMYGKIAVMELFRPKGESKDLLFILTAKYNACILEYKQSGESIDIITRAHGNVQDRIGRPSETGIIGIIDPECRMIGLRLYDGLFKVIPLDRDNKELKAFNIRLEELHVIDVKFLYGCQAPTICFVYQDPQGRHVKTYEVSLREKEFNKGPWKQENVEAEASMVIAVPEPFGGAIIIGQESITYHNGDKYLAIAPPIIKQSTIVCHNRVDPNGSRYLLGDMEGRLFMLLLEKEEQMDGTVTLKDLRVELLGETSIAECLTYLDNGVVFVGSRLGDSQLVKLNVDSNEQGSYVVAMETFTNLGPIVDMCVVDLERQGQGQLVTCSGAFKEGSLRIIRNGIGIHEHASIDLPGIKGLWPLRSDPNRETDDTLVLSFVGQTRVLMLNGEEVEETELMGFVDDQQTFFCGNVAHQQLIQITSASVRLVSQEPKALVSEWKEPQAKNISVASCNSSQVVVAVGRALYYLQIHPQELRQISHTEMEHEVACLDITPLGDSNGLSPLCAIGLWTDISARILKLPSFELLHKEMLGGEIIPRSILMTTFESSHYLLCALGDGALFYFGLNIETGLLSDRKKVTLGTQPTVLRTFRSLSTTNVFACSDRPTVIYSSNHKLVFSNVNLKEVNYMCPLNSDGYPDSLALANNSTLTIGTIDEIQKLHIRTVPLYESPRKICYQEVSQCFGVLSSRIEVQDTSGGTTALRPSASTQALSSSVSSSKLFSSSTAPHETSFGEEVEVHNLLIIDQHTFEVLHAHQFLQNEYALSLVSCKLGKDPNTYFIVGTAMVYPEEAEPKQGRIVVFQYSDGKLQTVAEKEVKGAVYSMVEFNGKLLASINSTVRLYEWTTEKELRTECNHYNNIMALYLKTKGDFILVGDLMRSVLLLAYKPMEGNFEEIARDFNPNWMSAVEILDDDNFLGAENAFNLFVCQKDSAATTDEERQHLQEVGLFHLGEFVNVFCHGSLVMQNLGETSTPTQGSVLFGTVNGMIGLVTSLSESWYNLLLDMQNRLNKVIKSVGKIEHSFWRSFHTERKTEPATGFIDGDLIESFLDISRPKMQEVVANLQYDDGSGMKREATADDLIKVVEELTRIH

Row | Compound | TR-FRET signal at compound concentration ([1]; compound concentration 4.68 nM) | TR-FRET signal at compound concentration ([1]; compound concentration 21.6 nM) | TR-FRET signal at compound concentration ([1]; compound concentration 36 nM) | TR-FRET signal at compound concentration [1, 4] | TR-FRET signal at compound concentration [1, 5] | TR-FRET signal at compound concentration [1, 6] | TR-FRET signal at compound concentration [1, 7] | TR-FRET signal at compound concentration [1, 8] | TR-FRET signal at compound concentration ([1]; compound concentration 2448 nM) | TR-FRET signal at compound concentration [1, 9] | TR-FRET signal at compound concentration [1, 10] | EC50 [1, 11] [nM] | EC50 [1, 12] [nM] | EC50 [1, 13] [nM] | EC50 [2, 14] [nM] | Toxicity rescue ([2]; Supplementary Table 2) [%] | DC50 [3, 15] [nM] | % MLN4924 rescue [2] [%] | other results
1 | CC[C@H](CO)Nc1nc(NCc2cnc(-c3ccccn3)cc2C2OCCO2)c2ncn(C(C)C)c2n1 [WX4] | 0.2788 and 0.2836 | 0.5021 and 0.5027 | 0.8511 and 0.8473 | 1.261 and 1.263 | 1.515 and 1.577 | 1.862 and 1.944 | 2.0566 and 2.128 | 2.108 and 2.242 | 2.161 and 2.2916 | 2.174 and 2.318 | 2.132 and 2.191 | 79 ± 6 | 78.5 | 78.5 | 1180 | 432 | 365 | – | –
2 | CC[C@H](CO)Nc1nc(NCCCCCc2ccccc2)c2ncn(C(C)C)c2n1 [DS02] | 0.1674 and 0.1915 | 0.2669 and 0.3147 | 0.462 and 0.5388 | 0.7422 and 0.8389 | 1.142 and 1.242 | 1.648 and 1.83 | 2.134 and 2.344 | 2.523 and 2.691 | 2.757 and 2.986 | 2.985 and 3.212 | 3.04 and 3.2335 | 285 ± 19 | 285 | 285 | > 10000 | 0 | 1780 | – | fold lower affinity than DS11 ([1]; TR-FRET complex formation): 5-10 fold
3 | CC[C@H](CO)Nc1nc(NCc2ccn(-c3cccc(Cl)c3)n2)c2ncn(C(C)C)c2n1 [DS43] | – | – | – | – | – | – | – | – | – | – | – | 44 ± 2 | 43.7 | 43.7 | 1260 | 697 | 75 | 649 | TR-FRET signal at compound concentration ([1]; compound concentration 0.468 nM): 0.2854 and 0.3016; TR-FRET signal at compound concentration ([1]; compound concentration 2.16 nM): 0.3338 and 0.3545; TR-FRET signal at compound concentration ([1]; compound concentration 3.6 nM): 0.4308 and 0.466; TR-FRET signal at compound concentration ([1]; compound concentration 7.92001 nM): 0.6201 and 0.666; TR-FRET signal at compound concentration ([1]; compound concentration 15.84 nM): 0.9968 and 1.0413; TR-FRET signal at compound concentration ([1]; compound concentration 30.96 nM): 1.655 and 1.7184; TR-FRET signal at compound concentration ([1]; compound concentration 62.6401 nM): 2.415 and 2.607; TR-FRET signal at compound concentration ([1]; compound concentration 125.28 nM): 3.042 and 3.307; TR-FRET signal at compound concentration ([1]; compound concentration 244.8 nM): 3.43 and 3.794; TR-FRET signal at compound concentration ([1]; compound concentration 993.601 nM): 3.717 and 4.015; TR-FRET signal at compound concentration ([1]; compound concentration 2001.6 nM): 3.6778 and 3.923; EC50 ([2]; Supplementary Fig. 5, HEK293T, CellTiter Glo, 72h, pre-treatment with 100 nM MLN4924, read-out: Viability EC50, with MLN4924): 15500 nM
4 | CC(C)(C)c1cnc(CSc2cnc(NC(=O)C3CCNCC3)s2)o1 [SNS032, reference compound] | – | – | – | – | – | – | – | – | – | – | – | – | – | – | 265 | -22 | – | 0 | TR-FRET signal ([1]; compound concentration 4.68 nM): 0.1508 and 0.1736; TR-FRET signal ([1]; compound concentration 21.6 nM): 0.2014 and 0.2318; TR-FRET signal ([1]; compound concentration 36 nM): 0.2617 and 0.2904; TR-FRET signal [1, 4]: 0.3013 and 0.3457; TR-FRET signal [1, 5]: 0.3207 and 0.3602; TR-FRET signal [1, 6]: 0.329 and 0.3662; TR-FRET signal [1, 7]: 0.3309 and 0.3799; TR-FRET signal [1, 8]: 0.346 and 0.4035; TR-FRET signal ([1]; compound concentration 2448 nM): 0.3618 and 0.4046; TR-FRET signal [1, 9]: 0.3822 and 0.42; TR-FRET signal [1, 10]: 0.3638 and 0.4143; DDB1–CDK12 complex formation, result in words ([1]; in vitro TR-FRET): no gain-of-function activity; DC50 ([3]; Supplementary Table 2, HEK293T cycK-eGFP reporter, 5 h, read-out: Cellular assays DC50): > 10000 nM
